The term pIC50 denotes the IC50 on a negative log10 scale, so that one unit is a factor of ten. For orientation: inhibition means the relative decrease from the control value, in per cent. A word on the ΔTm: it is the change in melting temperature against a reference sample.

pIC50: −log10 of the molar value. The source made the active and inactive calls. The calls are words filed in the database; no cut-off is given here. A value given as a limit tells only on which side of the number the result lay.

The subject of assay [1] is JAR. Nature of the assay: Antiproliferative activity against human JAR cells assessed as cell growth inhibition incubated for 72 hrs by MTT assay. Format: functional, cell-based. In general terms: Tetrazolium dyes change colour on reduction, which living cells bring about.
For assay [2], the system named is JAR. Nature of the assay: Induction of apoptosis in human JAR cells assessed as fold increase in cleaved PARP level at 10 uM incubated for 24 hrs by Western blot analysis. Format: functional. A general note: A western blot detects proteins with antibodies after separation by electrophoresis.
Assay [3] deals with JAR. The assay can be described thus: Inhibition of colony formation in human JAR cells measured after 3 days by Giemsa staining based microscopic analysis. Conditions: time 3.0 day, DDE = dose-dependent effect. In kind it is functional, cell-based.
Assay [4] deals with A549. Nature of the assay: Antiproliferative activity against human A549 cells assessed as cell growth inhibition incubated for 72 hrs by MTT assay. In kind it is functional, cell-based. As to conditions: A549, 72 h.
For assay [5], the system named is K562. The assay can be described thus: Antiproliferative activity against human K562 cells assessed as cell growth inhibition incubated for 72 hrs by MTT assay. As to conditions: K562, 72 h. Format: functional, cell-based.
Assay [6] has as its system JAR. The assay can be described thus: Inhibition of cell migration in human JAR cells at 5 uM measured after 72 hrs by scratch wound healing assay relative to control. In kind it is functional.
The species named for another assay is Homo sapiens. Nature of the assay: Binding affinity to RNase L (unknown origin) expressed in Escherichia coli BL21 (DE3) assessed as thermal stability by measuring melting temperature at 60 uM incubated for 50 mins by NanoDSF analysis. Background: In DSF a fluorescence change marks the thermal transition of the protein.
Assay [7] deals with JAR. The assay can be described thus: Induction of apoptosis in human JAR cells assessed as live cells at 10 uM measured after 72 hrs by Annexin V-FITC/PI staining based flow cytometry (reference value: 79.87%). Format: functional.
The test system of assay [8] is JAR. Nature of the assay: Induction of apoptosis in human JAR cells assessed as necrotic cells at 10 uM measured after 72 hrs by Annexin V-FITC/PI staining based flow cytometry (reference value: 0.22%). In kind it is functional.
The subject of assay [9] is JAR. The assay can be described thus: Induction of apoptosis in human JAR cells assessed as late apoptotic cells at 10 uM measured after 72 hrs by Annexin V-FITC/PI staining based flow cytometry (reference value: 11.67%). Format: functional.
The test system of assay [10] is JAR. Nature of the assay: Induction of apoptosis in human JAR cells assessed as late apoptotic cells at 5 uM measured after 72 hrs by Annexin V-FITC/PI staining based flow cytometry (reference value: 11.67%). Format: functional.
The subject of assay [11] is JAR. Nature of the assay: Inhibition of colony formation in human JAR cells assessed as cell reproductive death at upto 5 uM measured after 3 days by Giemsa staining based microscopic analysis. In kind it is functional. As to conditions: time 3.0 day.
Assay [12] deals with JAR. Nature of the assay: Induction of apoptosis in human JAR cells assessed as fold increase in PARP cleavage at 5 to10 uM incubated for 24 hrs by Western blot analysis. Format: functional. As to conditions: dose 10 µM.
For assay [13], the system named is JAR. The assay can be described thus: Induction of apoptosis in human JAR cells assessed as early apoptotic cells at 10 uM measured after 72 hrs by Annexin V-FITC/PI staining based flow cytometry (reference value: 8.24%). Format: functional.
The test system of assay [14] is JAR. Nature of the assay: Induction of apoptosis in human JAR cells assessed as necrotic cells at 5 uM measured after 72 hrs by Annexin V-FITC/PI staining based flow cytometry (reference value: 0.22%). In kind it is functional.
The subject of assay [15] is JAR. Nature of the assay: Antiproliferative activity against human JAR cells assessed as cell growth inhibition at 10 uM incubated for 72 hrs by MTT assay relative to control. In kind it is functional.
The subject of assay [16] is JAR. Nature of the assay: Induction of apoptosis in human JAR cells assessed as live cells at 5 uM measured after 72 hrs by Annexin V-FITC/PI staining based flow cytometry (reference value: 79.87%). Format: functional.
Assay [17] has as its system MCF7. The assay can be described thus: Antiproliferative activity against human MCF7 cells assessed as cell growth inhibition incubated for 72 hrs by MTT assay. Format: functional, cell-based. Conditions: MCF7, 72 h.
Assay [18] concerns JAR. Nature of the assay: Induction of apoptosis in human JAR cells assessed as early apoptotic cells at 5 uM measured after 72 hrs by Annexin V-FITC/PI staining based flow cytometry (reference value: 8.24%). In kind it is functional.
The subject of assay [19] is MCF7. Nature of the assay: Antiproliferative activity against human MCF7 cells assessed as cell growth inhibition at 10 uM incubated for 72 hrs by MTT assay relative to control. In kind it is functional.
Assay [20] relates to K562. Nature of the assay: Antiproliferative activity against human K562 cells assessed as cell growth inhibition at 10 uM incubated for 72 hrs by MTT assay relative to control. Format: functional.
Assay [21] has as its system A549. Nature of the assay: Antiproliferative activity against human A549 cells assessed as cell growth inhibition at 10 uM incubated for 72 hrs by MTT assay relative to control. Format: functional.

Turning to `CCOC(=O)C1=C(Nc2ccccc2)S/C(=C\c2ccc(F)c(C#N)c2)C1=O`, the pIC50 in the assay on JAR [1] was 5.82; in the assay on A549 [4], 5.10; in the assay on K562 [5] it was 5.80; in the assay on MCF7 [17], 5.28. Also, the “fold change (FC)” value in the assay with JAR [2] and in the assay on JAR [12] was >2 each time. Besides, the inhibition entry in the assay on JAR [3] is “Dde”. In the assay with JAR [6], at 5 µM the inhibition was 85%. Besides, the shift in melting temperature (ΔTm) in the assay filed under Homo sapiens turned out to be 0.8 °C. In addition, the Activity amounted to 32.48% in the assay on JAR [7]; 6.8% with JAR [8]; 55.7% with JAR [9]; 27.47% in the assay with JAR [10]; 5.06% in the assay on JAR [13]; 1.88% in the assay on JAR [14]. The Activity with JAR [16] is reported as 47.62%; in the assay with JAR [18] it was 23.02%. Also, the inhibition result in the assay on JAR [11] was “Active”. The inhibition at 10 µM in the assay on JAR [15] came to 99.9%.
On to `CCOC(=O)C1=C(Nc2ccccc2)S/C(=C\C2CCCCC2)C1=O`, for which the pIC50 was 5.43 in the assay with JAR [1], 4.74 in the assay with A549 [4], 5.23 in the assay on K562 [5] and 5.19 with MCF7 [17]. Further, in the assay on JAR [2], the “fold change (FC)” value is given as >1.5. In addition, the inhibition entry in the assay on JAR [3] is “Dde”. This compound also returned an inhibition at 5 µM in the assay with JAR [6] of 42%. For the same compound, the shift in melting temperature (ΔTm) in the assay filed under Homo sapiens was 1.4 °C. Further, the inhibition result with JAR [11] was “Active”. Besides, the inhibition at 10 µM was 95.2% with JAR [15] and 45.3% in the assay with MCF7 [19].
For `CCOC(=O)C1=C(Nc2ccccc2Br)S/C(=C\c2ccc[nH]2)C1=O`, the pIC50 with JAR [1] was 5.05; in the assay on A549 [4], 4.36; in the assay with K562 [5] it was 4.44; in the assay with MCF7 [17] it was 4.57. In addition, the figures for the inhibition at 10 µM in the assay with JAR [15], with K562 [20] and in the assay with MCF7 [19] were 62.7%, 20.5% and 29.4%, respectively.
For the compound `CCOC(=O)C1=C(Nc2cccc([N+](=O)[O-])c2)S/C(=C\c2ccc[nH]2)C1=O`, the pIC50 in the assay with JAR [1] is 5.00; with A549 [4], 4.62; in the assay with K562 [5] it was 5.14; in the assay with MCF7 [17], 4.68. Further, the inhibition at 10 µM was 57.4% in the assay on JAR [15] and 27.4% with MCF7 [19].
For `CCOC(=O)C1=C(Nc2ccccc2)S/C(=C\c2ccccc2C(F)(F)F)C1=O`, the ΔTm in the assay filed under Homo sapiens was 0.8 °C. Also, the inhibition at 10 µM with JAR [15] was 29%; in the assay with K562 [20], 19.7%; in the assay on A549 [21], < 10%; in the assay with MCF7 [19], < 10%.
For `CCOC(=O)C1=C(Nc2ccccc2)S/C(=C\c2cccnc2)C1=O`, the ΔTm in the assay filed under Homo sapiens worked out at 1 °C. For the same compound, the inhibition at 10 µM was 32.1% with JAR [15], < 10% in the assay with K562 [20], < 10% in the assay with A549 [21] and < 10% with MCF7 [19].
Regarding `CCOC(=O)C1=C(Nc2ccccc2)S/C(=C\c2cc(OC)ccc2OC)C1=O`, the ΔTm in the assay listed under Homo sapiens was 0.5 °C. Besides, the inhibition at 10 µM is 38.1% in the assay with JAR [15], 30.7% with K562 [20], < 10% in the assay with A549 [21] and < 10% in the assay on MCF7 [19].
For `CCOC(=O)C1=C(Nc2ccccc2)S/C(=C\c2ccccc2O)C1=O`, the pIC50 with JAR [1] was 5.10; in the assay with A549 [4], 4.77; with K562 [5], 5.06; in the assay with MCF7 [17], 4.82. The inhibition at 10 µM in the assay with JAR [15] amounted to 89.4%.
Regarding `CCOC(=O)C1=C(Nc2ccccc2)S/C(=C\c2ccc(O)c(O)c2)C1=O`, the pIC50 was 5.21 in the assay with JAR [1], < 4.00 with A549 [4], 5.28 with K562 [5] and 4.60 with MCF7 [17]. Besides, the inhibition at 10 µM in the assay on JAR [15] amounted to 48.7%; in the assay with A549 [21], 30.7%; in the assay on MCF7 [19], 38.1%.
For `CCOC(=O)C1=C(Nc2ccccc2)SC(=C2CCC2)C1=O`, the pIC50 was 5.08 in the assay with JAR [1], 4.77 in the assay on A549 [4], 5.35 in the assay on K562 [5] and 4.74 in the assay on MCF7 [17]. Also, the ΔTm in the assay listed under Homo sapiens was determined as 0.7 °C. Moreover, the figures for the inhibition at 10 µM in the assay with JAR [15] and in the assay with MCF7 [19] were 70.2% and 40.4%, respectively.
Take `CCOC(=O)C1=C(Nc2ccccc2)S/C(=C\c2ccc(C(=O)OCC)[nH]2)C1=O`: the pIC50 in the assay on JAR [1] is 4.97; with A549 [4] it was < 4.00; in the assay with K562 [5], 4.33; with MCF7 [17], 4.52. Further, the inhibition at 10 µM in the assay with JAR [15] was 60.1%; in the assay on K562 [20], 18.6%; in the assay on A549 [21] it was < 10%.
Take `CCOC(=O)C1=C(Nc2ccccc2)S/C(=C\c2ccc(C(F)(F)F)cc2)C1=O`: the pIC50 was 5.23 with JAR [1], 5.01 in the assay with A549 [4], 5.15 with K562 [5] and 4.86 in the assay with MCF7 [17]. In the assay listed under Homo sapiens, the ΔTm came out at 0.8 °C. Besides, the inhibition at 10 µM amounted to 68.7% in the assay with JAR [15] and 41.3% in the assay on MCF7 [19].
On to `CCOC(=O)C1=C(Nc2ccccc2)S/C(=C\c2ccc[nH]2)C1=O`, for which the pIC50 in the assay with JAR [1] was 5.02; in the assay with A549 [4], < 4.00; in the assay with K562 [5] it was 4.15; in the assay with MCF7 [17], 4.32. Besides, the inhibition at 10 µM was determined as 49.2% in the assay on JAR [15], 16.2% in the assay with K562 [20], 23.5% in the assay on A549 [21] and 18.3% with MCF7 [19].
Take `CCOC(=O)C1=C(Nc2ccccc2)S/C(=C\c2ccc(O)c(OC)c2)C1=O`: the pIC50 in the assay with JAR [1] was 5.05; with A549 [4], < 4.00; in the assay with K562 [5], 4.98; with MCF7 [17] it was < 4.00. In addition, the ΔTm in the assay filed under Homo sapiens was -1.3 °C. The inhibition at 10 µM in the assay on JAR [15] was determined as 49.7%; with A549 [21], 24.2%; with MCF7 [19], 23.2%.
